Experimental data taken from patent publication US12338238B2, “Inhibitors of SARM1” (Disarm Therapeutics, Inc., priority 2018, dated 2025).
pIC50: −log10 of the molar value.

Key:
SARM1 SAM-TIR = SARM1 SAM-TIR (Homo sapiens (Human), UniProt Q6SZW1); assay: biochemical; type: biochemical; settings: SAM-TIR lysate 5 μg/mL, 2 hr pre-incubation, 5 μM NAD+, RapidFire MS
[1] = tested on: mouse dorsal root ganglion (DRG) axons; assay: Axon degeneration assay in mouse DRG drop culture; type: cell-based; settings: protection of axon fragmentation, axonal transection or chemotoxic stimuli
Description: This Example illustrates an in vitro axon degeneration assay used to characterize compounds of Formula I. This assay is used to test the efficacy of the compounds of Formula I to prevent axonal degeneration in a mouse dorsal root ganglion (DRG) drop culture.
Mouse dorsal root ganglion neurons (DRGs) were dissected out of E12.5 CD1 mice (50 ganglion per embryo) and incubated with 0.5% Trypsin solution containing 0.02% EDTA (Gibco) at 37° C. for 15 min. The cells were then triturated by gentle pipetting and washed 3 times with DRG growth medium (Neurobasal medium (Gibco) containing 2% B27 (Invitrogen), 100 ng/ml 2.5S NGF (Harland Bioproducts), […] 5-fluoro-2′deoxyuridine (Sigma), penicillin, and streptomycin). Cells were suspended in the DRG growth medium. DRG drop cultures were created by spotting 5000 cells/well into the center of each well of a 96-well tissue culture plate coated with poly-D-Lysine (0.1 mg/ml; Sigma) and laminin ([…]; Invitrogen). Cells were allowed to adhere to the plates in a humidified tissue culture incubator (5% CO2) for 15 min and then DRG growth medium was gently added ([…]).
Axonal degeneration was stimulated either by manual axonal transection using a scalpel blade, or chemotoxic stimuli. After an appropriate experimental time period, the DRG cultures were fixed in 1% PFA plus sucrose and kept in the fridge prior to imaging. Bright-field images of DRG axons and cell bodies were collected using the 20x water immersion lens of a Phenix automated confocal microscope (PerkinElmer) and quantitation of axonal performed using in-house developed scripts (Acapella, PerkinElmer).

Sequence of SARM1 SAM-TIR (Q6SZW1 409-724): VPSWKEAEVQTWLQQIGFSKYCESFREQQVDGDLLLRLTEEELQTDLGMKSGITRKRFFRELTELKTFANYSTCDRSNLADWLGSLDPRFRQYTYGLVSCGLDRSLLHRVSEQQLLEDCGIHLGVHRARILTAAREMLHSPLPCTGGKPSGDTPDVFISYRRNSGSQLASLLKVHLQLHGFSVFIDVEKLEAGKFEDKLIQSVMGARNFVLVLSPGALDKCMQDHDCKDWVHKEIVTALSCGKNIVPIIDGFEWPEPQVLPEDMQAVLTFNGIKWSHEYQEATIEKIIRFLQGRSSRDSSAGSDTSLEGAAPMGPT

Brc1cncc2ccccc12 [Example 2]
pIC50 (SARM1 SAM-TIR): 4.52 to 4.82

O=c1[nH]cc(I)c2ccncc12 [Example 3]
pIC50 (SARM1 SAM-TIR): > 5.30

O=c1[nH]cc(Br)c2ccncc12 [Example 4]
pIC50 (SARM1 SAM-TIR): > 5.30

O=c1[nH]ccc2ccncc12 [Example 5]
pIC50 (SARM1 SAM-TIR): > 5.30

O=c1[nH]ncc2ccc(F)cc12 [Example 7]
pIC50 (SARM1 SAM-TIR): < 4.52

Brc1cccc2cnccc12 [Example 8]
pIC50 (SARM1 SAM-TIR): > 5.30 | pIC50 [1]: > 5.00

Nc1ccc2cnccc2c1Cl [Example 9]
pIC50 (SARM1 SAM-TIR): 4.52 to 4.82

Brc1cccc2cnncc12 [Example 10]
pIC50 (SARM1 SAM-TIR): > 5.30

Oc1cccc2ccncc12 [Example 11]
pIC50 (SARM1 SAM-TIR): > 5.30

Nc1ccc(Br)c2ccncc12 [Example 12]
pIC50 (SARM1 SAM-TIR): > 5.30

Cc1cncc2cccc(Br)c12 [Example 13]
pIC50 (SARM1 SAM-TIR): 4.82 to 5.30

Oc1cc2c(Br)cccc2cn1 [Example 14]
pIC50 (SARM1 SAM-TIR): < 4.52

COc1ccc(Br)c2ccncc12 [Example 15]
pIC50 (SARM1 SAM-TIR): > 5.30

Brc1ccc2cnncc2c1 [Example 16]
pIC50 (SARM1 SAM-TIR): < 4.52

Cc1cncc2ccccc12 [Example 17]
pIC50 (SARM1 SAM-TIR): 4.82 to 5.30

Nc1nccc2c(I)cccc12 [Example 18]
pIC50 (SARM1 SAM-TIR): > 5.30

c1cc(C2CC2)c2ccncc2c1 [Example 19]
pIC50 (SARM1 SAM-TIR): 4.82 to 5.30

CCn1cc(Br)c2ccncc2c1=O [Example 20]
pIC50 (SARM1 SAM-TIR): 4.82 to 5.30

COc1ncc(Br)c2ccncc12 [Example 21]
pIC50 (SARM1 SAM-TIR): 4.82 to 5.30

CC(C)c1c[nH]c(=O)c2cnccc12 [Example 22]
pIC50 (SARM1 SAM-TIR): 4.82 to 5.30

CN(C)c1nccc2c(Br)cccc12 [Example 23]
pIC50 (SARM1 SAM-TIR): < 4.52

COc1ncc(C2CC2)c2ccncc12 [Example 24]
pIC50 (SARM1 SAM-TIR): < 4.52

CC(C)Oc1cccc2cnccc12 [Example 25]
pIC50 (SARM1 SAM-TIR): < 4.52

Ic1cccc2cnccc12 [Example 26]
pIC50 [1]: > 5.00

CNc1nccc2c(Br)cccc12 [Example 27]
pIC50 (SARM1 SAM-TIR): < 4.52

COc1c[nH]c(=O)c2cnccc12 [Example 28]
pIC50 (SARM1 SAM-TIR): < 4.52

O=c1cc(Br)c2ccncc2[nH]1 [Example 29]
pIC50 (SARM1 SAM-TIR): > 5.30

Fc1cc(Cl)c2ccncc2c1 [Example 30]
pIC50 (SARM1 SAM-TIR): > 5.30

Nc1ccc(Cl)c2ccncc12 [Example 32]
pIC50 (SARM1 SAM-TIR): > 5.30

O=c1[nH]ccc2c(Br)cccc12 [Example 33]
pIC50 (SARM1 SAM-TIR): 4.82 to 5.30

Clc1ccc(Br)c2cnccc12 [Example 34]
pIC50 (SARM1 SAM-TIR): 4.52 to 4.82

Nc1cccc2cncc(Br)c12 [Example 35]
pIC50 (SARM1 SAM-TIR): 4.52 to 4.82

c1cc2ccncc2cn1 [Example 36]
pIC50 (SARM1 SAM-TIR): 4.52 to 4.82

Nc1cccc2cnncc12 [Example 37]
pIC50 (SARM1 SAM-TIR): 4.52 to 4.82

Nc1nccc2ccncc12 [Example 38]
pIC50 (SARM1 SAM-TIR): < 4.52

O=c1[nH]ccc2ccc(O)cc12 [Example 39]
pIC50 (SARM1 SAM-TIR): < 4.52

COc1cc2cc[nH]c(=O)c2cc1F [Example 40]
pIC50 (SARM1 SAM-TIR): < 4.52

Clc1ccnc2cnccc12 [Example 41]
pIC50 (SARM1 SAM-TIR): > 5.30

Clc1cccc2cnccc12 [Example 42]
pIC50 (SARM1 SAM-TIR): > 5.30 | pIC50 [1]: 4.52 to 5.00

c1ccc2nnccc2c1 [Example 43]
pIC50 (SARM1 SAM-TIR): > 5.30

Oc1cccc2cnccc12 [Example 44]
pIC50 (SARM1 SAM-TIR): > 5.30

OCc1cccc2cnccc12 [Example 45]
pIC50 (SARM1 SAM-TIR): > 5.30

Nc1ncc(Br)c2ccncc12 [Example 46]
pIC50 (SARM1 SAM-TIR): > 5.30

O=[N+]([O-])c1cccc2cnccc12 [Example 47]
pIC50 (SARM1 SAM-TIR): 4.82 to 5.30

c1ccc2cnccc2c1 [Example 48]
pIC50 (SARM1 SAM-TIR): 4.82 to 5.30

COc1cccc2cnccc12 [Example 49]
pIC50 (SARM1 SAM-TIR): 4.82 to 5.30

NCc1cccc2cnccc12 [Example 50]
pIC50 (SARM1 SAM-TIR): 4.52 to 4.82

COC(=O)c1cccc2cnccc12 [Example 51]
pIC50 (SARM1 SAM-TIR): < 4.52

Nc1cccc2c(Br)cncc12 [Example 52]
pIC50 (SARM1 SAM-TIR): < 4.52

Cc1nccc2c(Br)cccc12 [Example 53]
pIC50 (SARM1 SAM-TIR): < 4.52

O=C(O)c1ccnc2cnccc12 [Example 54]
pIC50 (SARM1 SAM-TIR): 4.52 to 4.82

Nc1nccc2c(Br)cccc12 [Example 55]
pIC50 (SARM1 SAM-TIR): > 5.30

COc1cccc2ccncc12 [Example 56]
pIC50 (SARM1 SAM-TIR): > 5.30

Clc1ccc(Cl)c2cnccc12 [Example 57]
pIC50 (SARM1 SAM-TIR): 4.82 to 5.30

Cc1cc2c(N)cccc2cn1 [Example 58]
pIC50 (SARM1 SAM-TIR): 4.82 to 5.30

Oc1cncc2ccccc12 [Example 59]
pIC50 (SARM1 SAM-TIR): 4.52 to 4.82

Brc1cccc2cncnc12 [Example 60]
pIC50 (SARM1 SAM-TIR): < 4.52

FC(F)(F)c1cccc2cnccc12 [Example 61]
pIC50 (SARM1 SAM-TIR): < 4.52

Nc1ccc(O)c2cnccc12 [Example 62]
pIC50 (SARM1 SAM-TIR): > 5.30

Nc1cncc2ccccc12 [Example 63]
pIC50 (SARM1 SAM-TIR): 4.82 to 5.30

Ic1cccc2cnncc12 [Example 64]
pIC50 (SARM1 SAM-TIR): > 5.30

Oc1ccc(Br)c2ccncc12 [Example 65]
pIC50 (SARM1 SAM-TIR): > 5.30

Cn1cc(Br)c2ccncc2c1=O [Example 66]
pIC50 (SARM1 SAM-TIR): > 5.30

Brc1ccnc2cnccc12 [Example 67]
pIC50 (SARM1 SAM-TIR): > 5.30

CNc1ncc(Br)c2ccncc12 [Example 68]
pIC50 (SARM1 SAM-TIR): > 5.30

COc1cc(Br)c2ccncc2n1 [Example 69]
pIC50 (SARM1 SAM-TIR): > 5.30

Brc1cncc2cnccc12 [Example 70]
pIC50 (SARM1 SAM-TIR): > 5.30

Nc1ccnc2cnccc12 [Example 71]
pIC50 (SARM1 SAM-TIR): 4.82 to 5.30

CNC(=O)Nc1ncc(Br)c2ccncc12 [Example 72]
pIC50 (SARM1 SAM-TIR): 4.82 to 5.30

COc1cccc2cnncc12 [Example 73]
pIC50 (SARM1 SAM-TIR): 4.82 to 5.30

CSc1cccc2cnccc12 [Example 74]
pIC50 (SARM1 SAM-TIR): 4.82 to 5.30

Nc1c[nH]c(=O)c2cnccc12 [Example 75]
pIC50 (SARM1 SAM-TIR): 4.52 to 4.82

Cc1nccc2c(Br)c[nH]c(=O)c12 [Example 76]
pIC50 (SARM1 SAM-TIR): 4.52 to 4.82

O=S(=O)(Nc1nccc2c(Br)cccc12)C1CC1 [Example 77]
pIC50 (SARM1 SAM-TIR): 4.52 to 4.82

O=c1[nH]cnc2ccncc12 [Example 78]
pIC50 (SARM1 SAM-TIR): 4.52 to 4.82

CC(=O)c1cccc2cnccc12 [Example 79]
pIC50 (SARM1 SAM-TIR): 4.52 to 4.82

O=c1[nH]cc([N+](=O)[O-])c2ccncc12 [Example 80]
pIC50 (SARM1 SAM-TIR): < 4.52

Clc1ncc(Br)c2ccncc12 [Example 81]
pIC50 (SARM1 SAM-TIR): < 4.52

CC(C)(O)c1cccc2cnccc12 [Example 82]
pIC50 (SARM1 SAM-TIR): < 4.52

O=c1[nH]cc(Br)c2cc[n+]([O-])cc12 [Example 83]
pIC50 (SARM1 SAM-TIR): < 4.52

Nc1nccc2c(C3CC3)cccc12 [Example 84]
pIC50 (SARM1 SAM-TIR): < 4.52

C#Cc1cccc2cnccc12 [Example 85]
pIC50 (SARM1 SAM-TIR): > 5.30
